Type in all cases: cell-based
In assay [1] the test system is primary human mast cells (human skin). In words: Histamine release assay, Substance P induced, primary human mast cells. As to conditions: dose-dependent; not dependent on pre-incubation time. Here is the method: (§1) Tissue mast cells were isolated from human skin obtained during cosmetic surgery. Use of human skin was conducted according to the Declaration of Helsinki Principles and was approved by the Institutional Review Board of the Charité—Universitätsmedizin Berlin. For isolation of mast cells, the epidermis was enzymatically detached by an overnight incubation at 4° C. with dispase at a concentration of 1 mg/ml. The remaining dermis was dispersed by incubation with a mix of collagenase I and hyaluronidase for 1 h at 37° C. Dispersion was repeated three times, and the collected cells were washed. […] The final mast cell purity was >90% as measured by Toluidin blue staining. The viability of mast cells was >95% as assessed by Trypan blue staining (Grützkau et al 2000, Artuc et al 2002). The quantification of histamine levels was achieved using an automated histamine-analyser system (Firm Borgwelt Technik). The wavelength of the excitation was 355-360 nm and the emission wavelength of fluorescence measurement was 450-460 nm. The intensity of fluorescence was directly proportional to the concentration of histamine in the samples. The amount of released histamine was calculated according to the following formula: net histamine release=(release−blank)×(100/complete). […]

Assay [2] relates to Rat basophilic leukemia (RBL-2H3) cells. In words: Mast cell degranulation assay (β-hexosaminidase release). The conditions noted are these: Rattus norvegicus. Here is the method: The assay measures release of β-hexosaminidase as a marker of release of various preformed pharmacological agents in response to clustering of the high affinity IgE receptor (FcεRI) by means of multivalent antigen-IgE complexes. Rat basophilic leukemia (RBL-2H3) cells, a commonly used model of mast cell degranulation, are sensitized with anti-DNP specific IgE and challenged with multivalent DNP-BSA. The release of β-hexosaminidase into the supernatant is measured by enzymatic conversion of the fluorogenic substrate 4-methylumbelliferyl-N-acetyl-β-D-glucosaminide to N-acetyl-β-D-glucosamine and highly fluorescent methylumbelliferone and quantified by fluorescence detection in a Tecan Safire™ plate reader.
RBL-2H3 cells obtained from the German Collection of Microorganisms and Cell Cultures (Braunschweig, Germany) were maintained in 70% Minimum Essential Medium with Earle's Salts/20% RPMI 1640/10% heat-inactivated fetal calf serum) supplemented with 2 mM GlutaMAX™-I in 5% CO2 at 37° C. and routinely checked to be free of mycoplasma contamination. Cells grown in 175 cm^2 flasks were split with 0.05% Trypsin/EDTA and resuspended in 20 ml fresh medium. One hundred and 50 μl cell suspension were plated per well into 24 well cluster plates (Costar, Schiphol-Rijk, Netherlands) and cells were used one or two days after plating, respectively.
Two to 24 hours before incubation with test compounds the medium was removed and cells were sensitized with 0.4 μg/ml anti-DNP IgE in fresh medium. Following sensitization, cells were washed once with warm TyB and incubated for 60 min with test compound at a maximum of 100 μM or the highest non-toxic concentration (total vehicle concentration adjusted to 1%) or 1% vehicle in TyB at 37° C. DNP-HSA (0.1 μg/ml final concentration) or buffer alone was added and cells incubated for 15 min at 37° C. Plates were centrifuged at 4° C. for 5 min at 250×g and immediately transferred to ice. Supernatants were collected and the cells lysed with lysis buffer. Hexosaminidase activity in supernatants and lysates was measured by incubating 25 μl aliquots with 100 μl MUG substrate solution in a 96-well plate at 37° C. for 30 min. The reaction was terminated by addition of 150 μl stop solution. Fluorescence was measured in a Tecan Safire™ plate reader at 365 nm excitation and 440 nm emission settings.
Each compound is tested in duplicates in at least three independent experiments. β-hexosaminidase release is calculated after subtraction of unspecific release (release without addition of antigen) using the formula: % degranulation=100×RFU supernatant/RFU lysate
Inhibition of β-hexosaminidase release with respect to control is calculated as
follows: % inhibition=100×(1−(RFU supernatant of compound/RFU supernatant of control))

Assay [3] deals with primary human mast cells (human skin). Briefly: Histamine release assay, anti-IgE induced, primary human mast cells. The conditions noted are these: Mast cell, maximal effect at 25 μM, not dependent on pre-incubation time, read-out: maximal inhibitory effect on IgE-induced histamine release. Here is the method:
as §1

One compound from patent US8394785B2, “Methods for the treatment and amelioration of urticaria” (Jado Technologies GmbH, priority 2005, dated 2013) can be followed below.

SMILES strings stand for the structures. Where only a bound is given, the exact number is not on record here.

`CCCCCCCCCCCCCCCCOP(=O)([O-])OCC[N+](C)(C)C` [Compound 3, 1-hexadecylphosphoryl-choline]: in assay [1], the “inhibition of Substance P induced histamine release” value is 45%. In assay [2] (1 h, concentration at which 50% of maximal inhibition is reached, RBL-2H3, 60 min incubation with compound, DNP antigen challenge, read-out: ID50 (the source's name)), the IC50 was 4.6 µM. Moreover, the inhibition at 10 µM in assay [2] (RBL-2H3, 10 μM, read-out: maximum inhibition (concentration used)) was found to be 87%. Moreover, the inhibition at 25 µM is more than 75% in assay [2] (RBL-2H3, at or 25 μM, read-out: inhibition of degranulation) and 35% in assay [3].
